Source: article PMC7822874, “Chemoprotective antimalarials identified through quantitative high-throughput screening of Plasmodium blood and liver stage parasites” (Scientific Reports, 2021)
“And” between values parts separate entries of the source, which are not always exact repeats. Equal values may be shown once.

What was measured:
[1] = system: T1, Plasmodium falciparum Dd2-attB-ScDHODH (transgenic line expressing yeast DHODH), asexual blood stages; test: organism not typed; parameters: replicate k of 3 (each line is one of three independent assays; the three lines of one compound and parasite line follow each other)
T1 construct: Dd2-attB-ScDHODH, the transgenic line that expresses yeast DHODH
Outline: (§1)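 Both lines were tested side by side with selected compounds, repeated in three independent assays. Differences between parental and ScDHODH-expressing parasites were then assessed with a two-sided Student's t-test.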

[2] = system: T2, Plasmodium falciparum Dd2-attB (parental line), asexual blood stages; test: microbe, parasite or virus in culture; parameters: replicate k of 3 (each line is one of three independent assays; the three lines of one compound and parasite line follow each other); settings: n = 1; for Individual replicates / Log AC50 (M): 72 h; for AC50: Plasmodium falciparum, DD2, 72 h, read-out: Individual replicates / Log AC50 (converted)
T2 construct: Dd2-attB, the isogenic parental line
Outline: as §1

[3] = 72 h; n = 1; read-out: Individual replicates / Log AC50 (converted)

| Compound | Individual replicates / Log AC50 (M) ([1]; 72 h, n = 1) | Individual replicates / Log AC50 (M) [2] | AC50 [2] [µM] | AC50 [1, 3] [µM] | Individual replicates / Log AC50 (M) ([1]; 72 h; n = 1) |
| --- | --- | --- | --- | --- | --- |
| O=C(NCCN1CCOCC1)c1cccc(-c2cc(O)c3ncccc3c2)c1 [NCGC00244535-01] | -5.1986 Log AC50 (M) and -4.7986 Log AC50 (M) | -4.8986 Log AC50 (M) and -5.0986 Log AC50 (M) | 6.33 |  |  |
| O=C(NCCCc1ccccc1)c1cccc(-c2cc(O)c3ncccc3c2)c1 [NCGC00244536-01] | -4.8986 Log AC50 (M) | -5.2486 Log AC50 (M) and -5.1986 Log AC50 (M) | 7.1 |  |  |
| CN(C)CC1CCN(C2CCN(C(=O)c3cccc(-c4cc(O)c5ncccc5c4)c3)CC2)CC1 [NCGC00247736-01] | -4.7986 Log AC50 (M) and -5.0486 Log AC50 (M) | -5.3486 Log AC50 (M) and -4.8486 Log AC50 (M) and -5.1486 Log AC50 (M) |  |  |  |
| CN(C)CC1CCCN(C2CCN(C(=O)c3cccc(-c4cc(O)c5ncccc5c4)c3)CC2)C1 (stereo not drawn) [NCGC00247737-01] | -5.4486 Log AC50 (M) | -5.3986 Log AC50 (M) and -5.3486 Log AC50 (M) | 5.64 | 6.33 |  |
| O=C(Nc1ccccn1)c1ccc(-c2cc(O)c3ncccc3c2)cc1 [NCGC00247739-01] | -4.7986 Log AC50 (M) | -4.9986 Log AC50 (M) and -4.8986 Log AC50 (M) | 7.97 | 8.94 |  |
| CN1CCN(CCCNC(=O)c2cccc(-c3cc(O)c4ncccc4c3)c2)CC1 [NCGC00247740-01] | -4.7486 Log AC50 (M) and -4.7986 Log AC50 (M) | -4.7986 Log AC50 (M) and -4.7486 Log AC50 (M) | 15.9 | 17.8 |  |
| O=C(NCCCN1CCCC1)c1cccc(-c2cc(O)c3ncccc3c2)c1 [NCGC00247742-01] |  | -4.7986 Log AC50 (M) | 17.8 | 17.8 | -4.7486 Log AC50 (M) |
| CC(c1ccccc1)N1CCN(c2cnc3c(O)ccc(C(=O)O)c3c2)CC1 (stereo not drawn) [NCGC00247745-01] | -4.7986 Log AC50 (M) and -4.7486 Log AC50 (M) | -4.8486 Log AC50 (M) and -4.7486 Log AC50 (M) | 15.9 | 17.8 |  |
| CN(C)CCCCCNC(=O)c1cccc(-c2cc(O)c3ncccc3c2)c1 [NCGC00247747-01] |  | -4.8486 Log AC50 (M) | 14.2 | 14.2 |  |
| Oc1cc(-c2ccc(CN3CCOCC3)cc2)cc2cccnc12 [NCGC00247750-01] | -5.2986 Log AC50 (M) and -5.1486 Log AC50 (M) | -5.2986 Log AC50 (M) and -5.3986 Log AC50 (M) | 5.03 | 5.03 |  |
| O=C(O)c1ccc(O)c2ncc(N3CCCN(CCCc4ccncc4)CC3)cc12 [NCGC00247752-01] | -4.7986 Log AC50 (M) and -4.7486 Log AC50 (M) | -4.7486 Log AC50 (M) | 12.6 | 17.8 |  |
| CN(C)[S+](=O)([O-])c1cccc(-c2cc(O)c3ncccc3c2)c1 [NCGC00247754-01] | -5.2986 Log AC50 (M) and -5.1486 Log AC50 (M) | -5.2986 Log AC50 (M) | 5.64 | 5.03 |  |
| Oc1cc(-c2ccc(CN3CCOCC3)c(F)c2)cc2cccnc12 [NCGC00247756-01] | -5.2986 Log AC50 (M) and -5.2486 Log AC50 (M) | -5.2986 Log AC50 (M) | 5.03 | 5.03 |  |
| O=C(NCCCN1CCCCCC1)c1cccc(-c2cc(O)c3ncccc3c2)c1 [NCGC00247760-01] |  | -4.8986 Log AC50 (M) and -4.7486 Log AC50 (M) | 20 | 15.9 |  |
| Cc1ccc(CN2CCN(c3cnc4c(O)ccc(C(=O)O)c4c3)CC2)cc1 [NCGC00249379-01] | -4.8486 Log AC50 (M) and -4.7486 Log AC50 (M) | -4.7986 Log AC50 (M) | 17.8 | 15.9 |  |
